{
  "source": "patent US7196063B1",
  "about": "“Peptides and pharmaceutical compositions comprising same” (NST NeuroSurvival Technologies Ltd., priority 1999, dated 2007)",
  "key": {"[1]": {"test_system": "apoptotic HeLa cells", "procedure": "One of the final steps of both intrinsic and extrinsic path-ways of coagulation, is the generation of thrombin from prothrombin. Thrombin is the final protease generated in the sequence of coagulation reaction, and its activity entails conversion of fibrinogen to fibrin, thus forming the clot. Generation of thrombin on the pro-coagulant surface of apoptotic cells was assayed (according to Bombeli T. et al., 1997, Blood 89(7), 2429–2442), by determining its activity, using the chromogenic substrate S-2366 (from Chromogenix, Sweden). Samples of pro-coagulant cells (HeLa cells treated with 500 μM of DA for 18 hours) were used for the assay. Reaction mixture, in a plastic 1 ml cuvette, contained 100 μl of cells (1.5×10^5), 350 μl of HBS (150 mM NaCl, 10 mM Hepes pH 7), and 150 μl of normal control plasma, that was re-calcified with 300 μl of 25 mM CaCl2. The reaction was started by addition of the substrate S-2366 to a final concentration of 0.2 mM, and the kinetics of thrombin activity was determined by optical density at OD405. Data was collected and analyzed by the Swift kinetics software (Pharmacia)."}, "[2]": {"test_system": "apoptotic HeLa cells", "settings": "500 nM, FACS", "procedure": "Detection of binding to apoptotic HeLa cells was performed according to the following procedure: Cells were plated on tissue culture plates at a density of 5×10^6 cells/10 cm dish, and grown in their normal medium at 37° C. for 18 hr. The medium was replaced with a medium containing 2% FCS and 500 μM of dopamine. Eighteen hours later, floating cells that were identified as advanced apoptotic cells were collected and transferred to a 50 ml tube. To evaluate the level of apoptosis in the cultures, aliquots of 10^5 cells from the cultures were plated on 48 wells plate and stained with Hoechst 33342 dye (Molecular Probes) at a concentration of 1 mg/ml for 20 min (as described above). Non-treated cells served as control. For collecting the non-treated cells, the medium of the culture was aspirated and discarded, the cells were rinsed with growing medium and 2 ml of medium were added to the culture dish. The cells were detached from the culture dish using a cell scraper and separated to single cells by passage through a syringe with a 18G needle.\nThe reactions were incubated at room temperature for 40 minutes and then 400 μl of TBS was added and cells were collected by centrifugation at 3000×g for 3 minutes. Cells were washed in 1 ml of TBS and centrifuged as before and detecting of the bound compound was performed using 100 μl of TBS containing streptavidin conjugated to fluorescein (FITC) (016-090-084 from Jackson ImmunoResearch lab. Inc.). Incubation was for 15 minutes at room temperature in the dark. Thereafter, 400 μl of TBS was added and cells were centrifuged and washed again with 1 ml of TBS as before, re-suspended in 400 μl of TBS and then taken for FACS analysis. The FACS analysis was performed on Beckton-Dickinson cell sorter, using lysis II software. Excitation was at 488 nm and emission for FITC detection was at 535 nm and for PI detection at 585 nm."}},
  "note": "Like-named read-outs stand apart in the source and are kept apart here.",
  "data": [
    {"substance": "Myristate-KVSFFCKNKEKKC-K (SEQ ID NO:1) (biotin) [NST513]", "values": [
      {"measurement": "change of time needed for obtaining 50% of thrombin activity (factor)", "setting": "[1]; 5 μM", "value": 1.5},
      {"measurement": "change of time needed for obtaining 50% of thrombin activity (factor)", "setting": "[1]; 10 μM", "value": 2.6},
      {"measurement": "thrombin generation by apoptotic cells", "setting": "[1]; 10 μM", "value": "rate of thrombin generation was also inhibited"},
      {"measurement": "thrombin generation by apoptotic cells", "setting": "[1]; 25 μM", "value": "fully block"},
      {"measurement": "thrombin activity (reflecting thrombin generation), dose response", "setting": "[1]; 5–50 μM", "value": "effectively inhibited"},
      {"measurement": "thrombin generation by apoptotic cells", "setting": "[1]; 25–50μM", "value": "Total blockage of thrombin generation"},
      {"measurement": "binding to apoptotic versus control HeLa cells", "setting": "[2]", "value": "strong labeling of apoptotic versus control cells"},
      {"measurement": "increase in the percentage of apoptotic cells labeled, as compared to non-apoptotic cells", "setting": "[2]; PI and FITC", "value": 5.5, "unit": "fold"},
      {"measurement": "binding to apoptotic versus control HeLa cells", "setting": "[2]; listed as NST313", "value": "specifically binds to apoptotic cells"}
    ]}
  ]
}
